# Patent US20040063721A1, “Agonism of the 5HT2A receptor for treatment of thermoregulatory dysfunction” (Wyeth, priority 2002, published 2004)
# Entries after “also recorded” stand apart in the source; their conditions may differ.
# System: morphine-dependent rat model of vasomotor instability
# Test: Morphine-dependent naloxone-induced flush model (tail skin temperature)
# Assay type: in vivo
# Conditions: for effect on basal tail skin temperature prior to administration of naloxone: ovariectomized morphine-dependent rats, MDL-100907 0.3, 1 mg/kg, DOI 1 mg/kg, FIG. 1
# [1] = Example 2, sc 20 min prior to naloxone, 5HT2c agonist 0.1, 3.0 mg/kg, 5HT2c antagonist 0.1, 1.0 mg/kg, FIG. 2
# [2] = Example 1, sc 20 min prior to naloxone
# [3] = Example 3, fluoxetine 10 mg/kg sc 1 h prior and/or WAY-100635 1 mg/kg sc 20 min prior to naloxone, FIG. 3
smiles,measurement,setting,value
Cc1cc2c(cc1Cl)N(C(=O)Nc1ccc(Oc3cccnc3C)nc1)CC2 [6-Chloro-5-methyl-1-[[2-[(2-methyl3-pyridyl)oxy]-5-pyridyl]carbamoyl]indoline],"abatement of naloxone-induced flush (changes in TST, Δ°C, mean, over time)",[1],did not significantly abate naloxone-induced flush
"c1cc2c3c(c1)[C@H]1CCC[C@H]1N3CCNC2 [(7bR, 10aR)-1,2,3,4,8,9,10,10a-octahydro-7bH-cyclopenta[b][1,4]diazepino[6,7,1-hi]indole]","abatement of naloxone-induced flush (changes in TST, Δ°C, mean, over time)",[1],did not significantly abate naloxone-induced flush
"COc1cc(CC(C)N)c(OC)cc1I.Cl (stereo not shown) [DOI, 1-(2,5-dimethoxy-4-iodophenyl)-2-aminopropane hydrochloride]",abatement of naloxone-induced flush (change in TST),"Example 1, DOI 1 mg/kg sc 20 min prior to naloxone, FIG. 1B, hydrochloride",preventing a naloxone-induced increase in tail-skin temperature; also recorded: significantly abated the naloxone-induced flush
same,effect on basal tail skin temperature prior to administration of naloxone,[2],without affecting basal tail skin temperature
COc1cccc([C@H](O)C2CCN(CCc3ccc(F)cc3)CC2)c1OC [MDL-100907],effect on basal tail skin temperature prior to administration of naloxone,[2],significantly induced an increase in tail skin temperature
same,effect on the combination drug abatement of the naloxone-induced flush at maximal flush,"Example 5, MDL-100907 0.01 or 0.1 mg/kg 55 min prior to naloxone, then fluoxetine 10 mg/kg + WAY-100635 0.01 mg/kg, 15 min post-naloxone, FIG. 5A",dose-dependently reversed
same,effect on fluoxetine (10 mg/kg) action on naloxone-induced flush at maximal flush,"Example 5, MDL-100907 0.01 or 0.1 mg/kg 55 min prior to naloxone, then fluoxetine 10 mg/kg, 15 min post-naloxone, FIG. 5B",potentiated
same,effect on fluoxetine (30 mg/kg) abatement of naloxone-induced hot flush,"Example 5, MDL-100907 0.01 or 0.1 mg/kg prior to fluoxetine 30 mg/kg, FIG. 5C",potentiated the abatement effect
"COc1ccccc1N1CCN(CCN(C(=O)C2CCCCC2)c2ccccn2)CC1 [WAY-100635, N-[2-[4-(2-Methoxyphenyl)-1-piperazinyl]ethyl]-N-2-pyridinylcyclohexanecarboxamide]","abatement of naloxone-induced flush (changes in TST, Δ°C, mean, over time)",[3],did not significantly abate naloxone-induced flush
same,ED50,"Rattus norvegicus, 0.25 h, Example 4, WAY-100635 0.01, 0.1 or 1.0 mg/kg sc combined with fluoxetine 10 mg/kg, 15 min post-naloxone, FIG. 4B, read-out: ED50 value, abatement of naloxone-induced flush at maximal flush",0.01 ± 0.009 mg/kg
CNCCC(Oc1ccc(C(F)(F)F)cc1)c1ccccc1 (stereo not shown) [fluoxetine],"abatement of naloxone-induced flush (changes in TST, Δ°C, mean, over time)",[3],did not significantly abate naloxone-induced flush
same,abatement of naloxone-induced flush by fluoxetine alone,"Example 5, fluoxetine 10 mg/kg sc",ineffective
same,abatement of naloxone-induced hot flush by fluoxetine alone,"Example 5, fluoxetine 30 mg/kg sc",abates a naloxone-induced hot flush
